Experimental data taken from patent US8664230B2, “Pyridopyrimidine derivatives and use thereof” (The Asan Foundation, priority 2011, dated 2014).

What was measured:
Assay in all cases: PI3 Kinase Activity/Inhibitor Assay (Millipore kit, competitive ELISA)
Assay type in all cases: biochemical
PI3Kα = PI3Kα (Homo sapiens (Human), UniProt P42336)
From the text: (§1) The PI3 Kinase Activity/Inhibitor Assay Kit was purchased from Millipore. The dimethylsulfoxide was purchased from Sigma-Aldrich.
(§2) The PI3 Kinase Activity/Inhibitor Assay is a competitive assay used for the fast and sensitive quantitation of activity of the four class I PI3 kinases (p110 α, β, γ, δ). The PI3 Kinase Activity/Inhibitor Assay works on the principle that PI3 Kinase phosphorylates P1(3,4)P2 (PIP2), converting it to PI(3,4,5)P3 (PIP3). The PH domain of the protein GRP-1 binds PIP3 with high affinity and specificity. The kit includes this recombinant protein that is used as the capture protein. This protein binds to the glutathione plate and captures either the PIP3 generated as part of the kinase reaction or the biotinylated-PIP3 tracer included in the kit. The captured biotinylated-PIP3 is detected using streptavidin-HRP conjugate and a colorimetric read out (OD 450). The lower the signal, the higher the PI3 Kinase activity.
(§3) PI3-Kinase included in the Kit was diluted at the ratio of 1:10 with distilled water and stored on ice. The compound was prepared by diluting the stock compound to 100× of the final concentration and then diluted again at the ratio of 1:50 to make 2× of the final concentration with distilled water.
(§4) The prepared PI3-Kinase (5 μL/well) and the compound (5 μL/well) were added to Glutathione-Coated Plate and pre-incubated at room temperature for 10 minutes. After adding 5 μL of 5× Kinase reaction buffer per well, PIP2 was diluted at the ratio of 1:20 with distilled water and 5 μL were added into each well. Distilled water was added up to 25 μL, and the reaction mixture was incubated at room temperature for an hour. Biotinylated-PIP3 was diluted at the ratio of 1:18 with 1×TBS solution and 25 μL of the mixture were put in each well excluding the buffer control well. GRP1-GST was diluted at the ratio of 1:1000 with 1×TBS solution and 50 μL of it was added to every well. The mixture was incubated at room temperature for an hour.
(§5) After removing the solution contained in the wells, the wells were washed 4 times with 200 μL of 1×TBST. SA-HRP was diluted at the ratio of 1:2000 with 1×TBST, then 50 μL of it was added into every well and incubated at room temperature for an hour. Again after removing the solution, they were washed 5 times by adding 200 μL of 1×TBST to each well. 100 μL of TMB solution was added to every well. The plate was developed in the dark for 5-20 minutes. As blue color appeared, the reaction was stopped by adding 100 μL of stop solution to every well, and the plate was read at 450 nm with ELISA Reader (TECAN).
(§6) For the calculation of relative percentage to biotinylated-PIP3, we take the direct absorbance at 450 nm (A450) and set the positive Biotinylated-PIP3 wells as 100 percentage. All the other signals are divided by the Biotinylated-PIP3 average, and multiplied by 100 to show the relative percentage to the positive signal. Relative % to B-PIP3=(A450 of samples include buffer, kinase & inhibitors/A450 of Biotinylated-PIP3 average)×100
(§7) IC50 values were calculated from the values read at 450 nm by using Graphpad Prism 5 software.

PI3Kγ = PI3Kγ (Homo sapiens (Human), UniProt P48736)
Chain of PI3Kγ (P48736 whole entry, species assumed): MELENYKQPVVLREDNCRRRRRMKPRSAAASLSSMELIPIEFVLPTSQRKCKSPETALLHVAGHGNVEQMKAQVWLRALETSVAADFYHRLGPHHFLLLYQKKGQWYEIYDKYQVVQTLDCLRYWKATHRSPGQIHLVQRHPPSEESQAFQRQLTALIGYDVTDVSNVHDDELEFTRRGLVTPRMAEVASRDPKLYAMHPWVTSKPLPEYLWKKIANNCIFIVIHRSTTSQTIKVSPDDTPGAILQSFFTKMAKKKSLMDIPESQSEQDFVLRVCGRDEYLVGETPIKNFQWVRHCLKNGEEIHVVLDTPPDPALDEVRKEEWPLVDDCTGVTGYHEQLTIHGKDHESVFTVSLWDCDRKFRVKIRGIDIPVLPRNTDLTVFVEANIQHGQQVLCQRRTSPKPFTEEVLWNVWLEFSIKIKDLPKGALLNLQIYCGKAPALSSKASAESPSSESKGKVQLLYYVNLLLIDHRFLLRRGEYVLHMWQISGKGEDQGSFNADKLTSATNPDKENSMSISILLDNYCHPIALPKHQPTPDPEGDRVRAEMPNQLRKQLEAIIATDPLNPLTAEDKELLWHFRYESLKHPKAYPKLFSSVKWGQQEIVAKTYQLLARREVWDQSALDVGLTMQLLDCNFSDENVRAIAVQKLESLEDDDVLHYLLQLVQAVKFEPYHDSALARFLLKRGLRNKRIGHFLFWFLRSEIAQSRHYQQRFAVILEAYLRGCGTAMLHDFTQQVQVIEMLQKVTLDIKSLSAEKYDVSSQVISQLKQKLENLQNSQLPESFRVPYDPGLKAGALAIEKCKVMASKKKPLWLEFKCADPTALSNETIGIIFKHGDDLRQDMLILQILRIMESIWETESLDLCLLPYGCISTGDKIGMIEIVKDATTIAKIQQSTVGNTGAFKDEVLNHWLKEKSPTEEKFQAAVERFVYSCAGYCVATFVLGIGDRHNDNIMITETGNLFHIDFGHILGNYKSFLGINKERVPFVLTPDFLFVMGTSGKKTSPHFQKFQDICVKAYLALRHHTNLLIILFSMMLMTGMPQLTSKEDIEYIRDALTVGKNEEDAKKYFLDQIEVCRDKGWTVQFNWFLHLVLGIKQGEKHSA
From the text: as §1, §2, §3, §4, §5, §6, §7

PI3Kδ = PI3Kδ (Homo sapiens (Human), UniProt O00329)
Chain of PI3Kδ (O00329 whole entry, species assumed): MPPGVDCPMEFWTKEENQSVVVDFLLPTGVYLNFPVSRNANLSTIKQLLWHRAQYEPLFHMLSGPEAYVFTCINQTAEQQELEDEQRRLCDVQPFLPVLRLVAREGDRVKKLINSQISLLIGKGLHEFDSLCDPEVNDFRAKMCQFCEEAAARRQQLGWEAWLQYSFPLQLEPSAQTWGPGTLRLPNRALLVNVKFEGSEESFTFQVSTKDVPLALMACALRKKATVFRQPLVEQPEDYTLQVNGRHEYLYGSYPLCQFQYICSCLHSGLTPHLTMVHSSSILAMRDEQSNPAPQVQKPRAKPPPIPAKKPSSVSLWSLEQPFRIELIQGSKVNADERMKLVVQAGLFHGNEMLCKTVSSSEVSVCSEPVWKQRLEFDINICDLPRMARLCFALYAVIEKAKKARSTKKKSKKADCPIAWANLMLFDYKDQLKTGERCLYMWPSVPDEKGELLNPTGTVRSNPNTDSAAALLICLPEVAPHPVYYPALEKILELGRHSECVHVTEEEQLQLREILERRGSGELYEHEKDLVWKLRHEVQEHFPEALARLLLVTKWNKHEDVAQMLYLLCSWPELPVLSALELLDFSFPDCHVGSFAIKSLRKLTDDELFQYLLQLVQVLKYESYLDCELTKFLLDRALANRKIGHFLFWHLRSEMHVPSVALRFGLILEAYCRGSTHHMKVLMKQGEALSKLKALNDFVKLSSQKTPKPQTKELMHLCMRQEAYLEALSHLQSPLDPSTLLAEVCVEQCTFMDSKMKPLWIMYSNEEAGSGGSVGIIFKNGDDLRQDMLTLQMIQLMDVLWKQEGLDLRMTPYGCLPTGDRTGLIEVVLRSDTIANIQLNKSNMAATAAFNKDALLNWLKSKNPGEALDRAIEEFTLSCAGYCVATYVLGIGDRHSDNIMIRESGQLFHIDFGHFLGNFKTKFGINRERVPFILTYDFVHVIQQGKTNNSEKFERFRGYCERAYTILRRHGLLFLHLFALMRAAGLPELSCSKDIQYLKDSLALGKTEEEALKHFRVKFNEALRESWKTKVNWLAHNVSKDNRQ
Chain of PI3Kδ (P27986 whole entry partner, species assumed): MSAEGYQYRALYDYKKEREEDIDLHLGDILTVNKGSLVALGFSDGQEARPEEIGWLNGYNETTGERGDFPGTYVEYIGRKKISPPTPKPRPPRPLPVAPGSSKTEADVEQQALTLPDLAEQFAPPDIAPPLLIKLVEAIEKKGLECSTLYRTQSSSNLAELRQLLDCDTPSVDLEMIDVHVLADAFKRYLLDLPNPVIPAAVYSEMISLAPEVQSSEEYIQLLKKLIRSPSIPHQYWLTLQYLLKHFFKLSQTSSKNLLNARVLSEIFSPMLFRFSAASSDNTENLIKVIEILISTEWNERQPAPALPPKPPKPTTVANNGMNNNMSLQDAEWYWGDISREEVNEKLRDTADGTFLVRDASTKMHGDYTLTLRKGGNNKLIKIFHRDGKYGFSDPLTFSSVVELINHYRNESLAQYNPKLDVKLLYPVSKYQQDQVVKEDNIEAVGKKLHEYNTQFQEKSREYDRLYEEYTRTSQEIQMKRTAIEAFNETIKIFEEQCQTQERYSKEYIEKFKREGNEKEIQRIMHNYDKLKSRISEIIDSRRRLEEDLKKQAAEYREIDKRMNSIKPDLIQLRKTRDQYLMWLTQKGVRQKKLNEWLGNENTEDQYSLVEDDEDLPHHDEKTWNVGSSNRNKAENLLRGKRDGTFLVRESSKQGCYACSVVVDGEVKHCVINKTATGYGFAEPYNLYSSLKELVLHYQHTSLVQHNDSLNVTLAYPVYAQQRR
From the text: as §1, §2, §3, §4, §5, §6, §7

Chain of PI3Kα (P42336 whole entry, looked up, species assumed): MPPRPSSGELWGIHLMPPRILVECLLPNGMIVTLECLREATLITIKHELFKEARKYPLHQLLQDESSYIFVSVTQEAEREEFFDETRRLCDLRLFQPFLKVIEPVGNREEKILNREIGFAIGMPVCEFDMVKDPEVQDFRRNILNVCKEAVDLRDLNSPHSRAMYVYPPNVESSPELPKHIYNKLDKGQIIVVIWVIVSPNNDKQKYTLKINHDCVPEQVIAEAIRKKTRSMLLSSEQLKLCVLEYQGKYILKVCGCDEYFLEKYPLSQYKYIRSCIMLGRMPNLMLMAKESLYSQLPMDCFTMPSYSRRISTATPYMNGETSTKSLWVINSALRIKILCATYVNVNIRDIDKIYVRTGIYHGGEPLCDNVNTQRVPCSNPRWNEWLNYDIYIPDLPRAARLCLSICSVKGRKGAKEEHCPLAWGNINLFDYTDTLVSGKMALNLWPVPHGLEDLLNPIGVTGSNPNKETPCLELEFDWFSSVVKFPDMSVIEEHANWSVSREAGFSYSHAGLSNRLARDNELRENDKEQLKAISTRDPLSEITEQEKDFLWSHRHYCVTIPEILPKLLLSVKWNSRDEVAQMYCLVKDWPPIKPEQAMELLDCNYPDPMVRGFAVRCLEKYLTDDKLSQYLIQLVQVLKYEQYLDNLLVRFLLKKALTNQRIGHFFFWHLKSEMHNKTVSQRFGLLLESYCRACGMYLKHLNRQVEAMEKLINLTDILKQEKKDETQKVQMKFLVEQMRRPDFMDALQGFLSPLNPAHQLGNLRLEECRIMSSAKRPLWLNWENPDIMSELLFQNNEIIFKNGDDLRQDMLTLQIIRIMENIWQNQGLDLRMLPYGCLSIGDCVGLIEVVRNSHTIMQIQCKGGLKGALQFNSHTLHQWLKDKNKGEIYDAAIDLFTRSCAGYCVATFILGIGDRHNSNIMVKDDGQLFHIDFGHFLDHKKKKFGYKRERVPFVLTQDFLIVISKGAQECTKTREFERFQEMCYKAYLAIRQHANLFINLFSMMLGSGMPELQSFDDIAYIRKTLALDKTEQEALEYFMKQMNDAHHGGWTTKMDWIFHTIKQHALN
Chain of PI3Kα (P27986 whole entry partner, looked up, species assumed): as the sequence (P27986 whole entry partner, species assumed) above

Row | SMILES | IC50 (PI3Kα) [µM] | IC50 (PI3Kγ) [µM] | IC50 (PI3Kδ) [µM]
1 | O=S(=O)(Nc1cc(-c2ccc3ncnc(NC4CCOCC4)c3n2)cnc1Cl)c1ccc(F)cc1F | < 10 | < 10 | < 10
2 | O=S(=O)(Nc1cc(-c2ccc3ncnc(OC4CCOCC4)c3n2)cnc1Cl)c1ccc(F)cc1F | < 1 | < 1 | < 1
3 | CN1CCC(Oc2ncnc3ccc(-c4cncc(NS(=O)(=O)c5ccccc5)c4)nc23)CC1 | < 10 | < 10 | < 10
4 | O=S(=O)(Nc1cncc(-c2ccc3ncnc(OC4CCOCC4)c3n2)c1)c1ccccc1 | < 10 | < 1 | < 10
5 | CN1CCC(Oc2ncnc3ccc(-c4cnc(Cl)c(NS(=O)(=O)c5ccc(F)cc5F)c4)nc23)CC1 | < 1 | < 10 | < 1
6 | O=S(=O)(Nc1cncc(-c2ccc3ncnc(Oc4cccnc4)c3n2)c1)c1ccccc1 | < 10 | < 1 | < 10
